Test results from the CheMixHub viscosity set.
± gives the uncertainty stated by the source.

Experiment: xn = mol fraction of the nth substance listed

C1COCCO1 + CC#N
viscosity [mPa·s], 101 kPa
Conditions	x2 = 0.1926	x2 = 0.3492	x2 = 0.4791	x2 = 0.5886	x2 = 0.6822	x2 = 0.763	x2 = 0.8336	x2 = 0.8957	x2 = 0.9508
298.15 K	0.9468 ± 0.024	0.772 ± 0.02	0.6349 ± 0.016	0.5315 ± 0.014	0.4573 ± 0.012	0.4099 ± 0.011	0.3679 ± 0.0096	0.3482 ± 0.0091	0.3389 ± 0.0089
308.15 K	0.8244 ± 0.021	0.6862 ± 0.018	0.5802 ± 0.015	0.503 ± 0.013	0.4477 ± 0.012	0.4079 ± 0.011	0.3775 ± 0.0098	0.3531 ± 0.0092	0.334 ± 0.0087
318.15 K	0.7189 ± 0.019	0.5994 ± 0.015	0.5014 ± 0.013	0.4305 ± 0.011	0.3854 ± 0.01	0.3542 ± 0.0093	0.3354 ± 0.0088	0.3194 ± 0.0084	0.3076 ± 0.0081

O=C1CCCO1 + CC#N
Conditions	viscosity [mPa·s]
293.15 K, 101 kPa, x2 = 0.1054	1.604 ± 0.026
293.15 K, 101 kPa, x2 = 0.1934	1.392 ± 0.023
293.15 K, 101 kPa, x2 = 0.3007	1.172 ± 0.02
293.15 K, 101 kPa, x2 = 0.4029	0.998 ± 0.018
293.15 K, 101 kPa, x2 = 0.5036	0.849 ± 0.016
293.15 K, 101 kPa, x2 = 0.6012	0.732 ± 0.015
293.15 K, 101 kPa, x2 = 0.702	0.608 ± 0.013
293.15 K, 101 kPa, x2 = 0.8008	0.518 ± 0.013
293.15 K, 101 kPa, x2 = 0.8993	0.433 ± 0.012
298.15 K, 101 kPa, x2 = 0.1054	1.484 ± 0.024
298.15 K, 101 kPa, x2 = 0.1934	1.292 ± 0.022
298.15 K, 101 kPa, x2 = 0.3007	1.092 ± 0.019
298.15 K, 101 kPa, x2 = 0.4029	0.934 ± 0.017
298.15 K, 101 kPa, x2 = 0.5036	0.8 ± 0.015
298.15 K, 101 kPa, x2 = 0.6012	0.691 ± 0.014
298.15 K, 101 kPa, x2 = 0.702	0.576 ± 0.013
298.15 K, 101 kPa, x2 = 0.8008	0.495 ± 0.012
298.15 K, 101 kPa, x2 = 0.8993	0.414 ± 0.012
298.15 K, 101.33 kPa, x2 = 0.0503	1.591 ± 0.015
298.15 K, 101.33 kPa, x2 = 0.0938	1.471 ± 0.014
298.15 K, 101.33 kPa, x2 = 0.1387	1.375 ± 0.013
298.15 K, 101.33 kPa, x2 = 0.2001	1.253 ± 0.013
298.15 K, 101.33 kPa, x2 = 0.249	1.164 ± 0.012
298.15 K, 101.33 kPa, x2 = 0.3005	1.074 ± 0.011
298.15 K, 101.33 kPa, x2 = 0.3969	0.925 ± 0.011
298.15 K, 101.33 kPa, x2 = 0.4459	0.86 ± 0.01
298.15 K, 101.33 kPa, x2 = 0.4998	0.79 ± 0.01
298.15 K, 101.33 kPa, x2 = 0.5515	0.728 ± 0.009
298.15 K, 101.33 kPa, x2 = 0.5979	0.676 ± 0.009
298.15 K, 101.33 kPa, x2 = 0.7014	0.571 ± 0.008
298.15 K, 101.33 kPa, x2 = 0.7522	0.525 ± 0.008
298.15 K, 101.33 kPa, x2 = 0.8006	0.485 ± 0.008
298.15 K, 101.33 kPa, x2 = 0.8359	0.456 ± 0.008
298.15 K, 101.33 kPa, x2 = 0.8994	0.409 ± 0.007
298.15 K, 101.33 kPa, x2 = 0.9532	0.365 ± 0.007
303.15 K, 101 kPa, x2 = 0.1054	1.378 ± 0.023
303.15 K, 101 kPa, x2 = 0.1934	1.204 ± 0.02
303.15 K, 101 kPa, x2 = 0.3007	1.021 ± 0.018
303.15 K, 101 kPa, x2 = 0.4029	0.877 ± 0.016
303.15 K, 101 kPa, x2 = 0.5036	0.756 ± 0.015
303.15 K, 101 kPa, x2 = 0.6012	0.655 ± 0.014
303.15 K, 101 kPa, x2 = 0.702	0.547 ± 0.013
303.15 K, 101 kPa, x2 = 0.8008	0.473 ± 0.012
303.15 K, 101 kPa, x2 = 0.8993	0.395 ± 0.012
308.15 K, 101 kPa, x2 = 0.1054	1.284 ± 0.022
308.15 K, 101 kPa, x2 = 0.1934	1.126 ± 0.019
308.15 K, 101 kPa, x2 = 0.3007	0.958 ± 0.017
308.15 K, 101 kPa, x2 = 0.4029	0.827 ± 0.016
308.15 K, 101 kPa, x2 = 0.5036	0.716 ± 0.014
308.15 K, 101 kPa, x2 = 0.6012	0.621 ± 0.013
308.15 K, 101 kPa, x2 = 0.702	0.52 ± 0.013
308.15 K, 101 kPa, x2 = 0.8008	0.452 ± 0.012
308.15 K, 101 kPa, x2 = 0.8993	0.378 ± 0.011
313.15 K, 101 kPa, x2 = 0.1054	1.201 ± 0.021
313.15 K, 101 kPa, x2 = 0.1934	1.055 ± 0.019
313.15 K, 101 kPa, x2 = 0.3007	0.902 ± 0.017
313.15 K, 101 kPa, x2 = 0.4029	0.781 ± 0.015
313.15 K, 101 kPa, x2 = 0.5036	0.68 ± 0.014
313.15 K, 101 kPa, x2 = 0.6012	0.591 ± 0.013
313.15 K, 101 kPa, x2 = 0.702	0.496 ± 0.012
313.15 K, 101 kPa, x2 = 0.8008	0.431 ± 0.012
313.15 K, 101 kPa, x2 = 0.8993	0.363 ± 0.011
318.15 K, 101 kPa, x2 = 0.1054	1.125 ± 0.02
318.15 K, 101 kPa, x2 = 0.1934	0.991 ± 0.018
318.15 K, 101 kPa, x2 = 0.3007	0.85 ± 0.016
318.15 K, 101 kPa, x2 = 0.4029	0.74 ± 0.015
318.15 K, 101 kPa, x2 = 0.5036	0.647 ± 0.014
318.15 K, 101 kPa, x2 = 0.6012	0.563 ± 0.013
318.15 K, 101 kPa, x2 = 0.702	0.473 ± 0.012
318.15 K, 101 kPa, x2 = 0.8008	0.413 ± 0.012
318.15 K, 101 kPa, x2 = 0.8993	0.344 ± 0.011
323.15 K, 101 kPa, x2 = 0.1054	1.058 ± 0.019
323.15 K, 101 kPa, x2 = 0.1934	0.934 ± 0.017
323.15 K, 101 kPa, x2 = 0.3007	0.803 ± 0.016
323.15 K, 101 kPa, x2 = 0.4029	0.702 ± 0.014
323.15 K, 101 kPa, x2 = 0.5036	0.617 ± 0.013
323.15 K, 101 kPa, x2 = 0.6012	0.538 ± 0.013
323.15 K, 101 kPa, x2 = 0.702	0.452 ± 0.012
323.15 K, 101 kPa, x2 = 0.8008	0.396 ± 0.012
323.15 K, 101 kPa, x2 = 0.8993	0.33 ± 0.011

C[N+](C)(C)CC(=O)[O-] + CC(=O)CCC(=O)O
viscosity [mPa·s]
Conditions	298.15 K	303.15 K	308.15 K	313.15 K	318.15 K	323.15 K
100 kPa, x2 = 0.667	1342 ± 190	857.3 ± 110	572.3 ± 72	393.6 ± 47	268.9 ± 30	194.2 ± 21
101 kPa, x2 = 0.7	–	838 ± 33	–	–	–	221 ± 11
101 kPa, x2 = 0.9	117.7 ± 4.3	–	–	–	–	–

N#C[S-].[NH4+] + CC(=O)[O-].CC[n+]1ccn(C)c1
viscosity [mPa·s], 101 kPa
Conditions	x1 = 0.02	x1 = 0.1002	x1 = 0.1998	x1 = 0.2514	x1 = 0.3001	x1 = 0.3199	x1 = 0.3413
298.15 K	136.6 ± 4.4	160.2 ± 5.3	190.7 ± 6.5	198.6 ± 6.8	194.6 ± 6.6	195.4 ± 6.6	196.4 ± 6.6
303.15 K	100.9 ± 3	117.6 ± 3.6	139.3 ± 4.4	144.4 ± 4.5	141.9 ± 4.4	142.8 ± 4.4	143.6 ± 4.4
308.15 K	76.44 ± 2.1	88.53 ± 2.5	104 ± 2.9	107.4 ± 3	105.9 ± 2.9	106.6 ± 2.9	107.3 ± 2.9
313.15 K	59.28 ± 1.6	68.07 ± 1.8	79.27 ± 2.1	81.46 ± 2.1	80.5 ± 2	81.14 ± 2	81.73 ± 2
318.15 K	46.92 ± 1.2	53.32 ± 1.4	61.47 ± 1.5	62.88 ± 1.5	62.26 ± 1.5	62.81 ± 1.5	63.32 ± 1.5
323.15 K	37.79 ± 1	42.45 ± 1.1	48.4 ± 1.2	49.28 ± 1.2	48.89 ± 1.2	49.35 ± 1.2	49.79 ± 1.1
